The text below walks through data of ChEMBL document CHEMBL5532645, “Discovery of proteolysis-targeting chimera targeting undruggable proteins using a covalent ligand screening approach” (Eur J Med Chem, 2024).

Calls of active or inactive are those of the source. The rule behind the calls is not given here.

In series [1] the target is T1, Protein cereblon/E3 ubiquitin-protein ligase Mdm2 (Homo sapiens) (UniProt Q00987+Q96SW2). The experiment in a line: PROTAC activity at CRBN/MDM2 in human HEK293 cells at 30 uM measured after 24 hrs Western blot analysis relative to control. It is filed as cell-based.
T1 sequence (Q00987 whole entry, looked up): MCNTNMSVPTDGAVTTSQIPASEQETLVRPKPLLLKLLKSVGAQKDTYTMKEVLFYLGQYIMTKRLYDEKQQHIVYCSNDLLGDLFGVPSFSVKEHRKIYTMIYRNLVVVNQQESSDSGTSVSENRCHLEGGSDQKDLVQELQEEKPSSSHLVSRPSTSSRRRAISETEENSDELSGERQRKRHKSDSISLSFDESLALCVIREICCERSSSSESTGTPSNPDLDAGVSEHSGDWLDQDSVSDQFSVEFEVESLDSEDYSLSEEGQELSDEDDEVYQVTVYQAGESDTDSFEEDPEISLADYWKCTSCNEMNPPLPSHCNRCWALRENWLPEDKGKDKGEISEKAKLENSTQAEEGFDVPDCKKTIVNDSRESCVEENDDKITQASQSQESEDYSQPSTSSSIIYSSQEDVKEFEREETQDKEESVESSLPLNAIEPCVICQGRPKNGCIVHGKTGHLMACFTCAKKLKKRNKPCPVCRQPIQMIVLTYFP
T1 sequence (Q96SW2 whole entry, looked up): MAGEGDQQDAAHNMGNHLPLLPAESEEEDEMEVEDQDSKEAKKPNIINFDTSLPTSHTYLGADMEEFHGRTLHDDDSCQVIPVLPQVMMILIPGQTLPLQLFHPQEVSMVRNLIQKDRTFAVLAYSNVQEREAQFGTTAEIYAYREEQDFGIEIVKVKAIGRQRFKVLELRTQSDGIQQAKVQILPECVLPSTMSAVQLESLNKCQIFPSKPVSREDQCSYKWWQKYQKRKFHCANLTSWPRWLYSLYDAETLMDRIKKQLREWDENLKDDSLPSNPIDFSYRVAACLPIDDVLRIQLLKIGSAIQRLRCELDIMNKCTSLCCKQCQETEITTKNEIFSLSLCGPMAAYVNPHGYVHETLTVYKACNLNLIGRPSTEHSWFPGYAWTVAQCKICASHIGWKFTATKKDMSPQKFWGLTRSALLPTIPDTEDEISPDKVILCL
In the next series the test system is HEK293. The experiment in a line: Cytotoxicity against HEK293 cells assessed as cell viability at 0.3 uM incubated for 24 hrs by cell counting kit 8 method. It is filed as toxicity, cell-based. As to conditions: human, hek293, 24 h.
Series [2] concerns the target T1, Protein cereblon/E3 ubiquitin-protein ligase Mdm2 (Homo sapiens). The experiment in a line: PROTAC activity at CRBN/MDM2 in human HEK293 cells assessed as increase in MDM2 expression at 30 uM measured after 6 hrs by Western blot analysis. It is filed as cell-based.
The target is the same in series [3]. The experiment in a line: PROTAC activity at CRBN/MDM2 in human HEK293 cells assessed as induction of MDM2 degradation at 30 uM by Western blot analysis. In kind it is cell-based. As to conditions: time 2-24 hrs, TDE = time-dependent effect.
For series [4] the target is unchanged. The experiment in a line: PROTAC activity at CRBN/MDM2 in human HEK293 cells assessed as maximum degradation at 10 uM measured after 24 to 48 hrs by Western blot analysis. It is filed as cell-based. As to conditions: time 24-48 hrs.
The target is the same in series [5]. The experiment in a line: PROTAC activity at CRBN/MDM2 in human HEK293 cells assessed as induction of MDM2 degradation at 3 to 10 uM. It is filed as cell-based. As to conditions: dose 3-10 µM.
For series [6] the target is unchanged. The experiment in a line: PROTAC activity at CRBN/MDM2 in human HEK293 cells at 3 to 10 uM preincubated with MG132 for 4 hrs followed by compound addition and measured after 20 hrs by Western blot analysis. It is filed as cell-based. As to conditions: dose 3-10 µM.
Series [7] shares this target. The experiment in a line: PROTAC activity at CRBN/MDM2 in human HEK293 cells assessed as induction of MDM2 degradation measured after 24 hrs by Western blot analysis. It is filed as cell-based. As to conditions: dose 3-30 µM.
Series [8] has the same target. The experiment in a line: PROTAC activity at CRBN/MDM2 in human HEK293 cells at 3 to 10 uM preincubated with MLN4924 for 4 hrs followed by compound addition and measured after 20 hrs by Western blot analysis. It is filed as cell-based. As to conditions: dose 3-10 µM.
The target is the same in series [9]. The experiment in a line: PROTAC activity at CRBN/MDM2 in human HEK293 cells assessed as induction of MDM2 degradation at 30 uM measured after 24 hrs by Western blot analysis. In kind it is cell-based.
Series [10] has the same target. The experiment in a line: PROTAC activity at CRBN/MDM2 in human HEK293 cells assessed as induction of MDM2 degradation at 30 uM measured after 2 hrs by Western blot analysis. It is filed as cell-based.

In series [1], `CN(C(=O)CCOCCOCCNc1cccc2c1C(=O)N(C1CCC(=O)NC1=O)C2=O)C(c1ccc(F)cc1)c1cccnc1` (stereo not given) had an Emax of 26.5%.
`O=C1CCC(N2C(=O)c3ccc(NCCOCCC(=O)N4CCOC(c5cccc(OC(F)F)c5)C4)cc3C2=O)C(=O)N1` (stereo not given): in [1], the Emax turned out to be 23.2%.
In the case of `CN(C(=O)CCOCCOCCOCCOCCNc1cccc2c1C(=O)N(C1CCC(=O)NC1=O)C2=O)C(c1ccc(F)cc1)c1cccnc1` (stereo not given), the Emax in series [1] is 5.5%.
In turn, `CN(C(=O)CCOCCOCCOCCNc1cccc2c1C(=O)N(C1CCC(=O)NC1=O)C2=O)C(c1ccc(F)cc1)c1cccnc1` (stereo not given) returned an Emax in series [1] of 5.6%.
On to `NS(=O)(=O)OC[C@@H]1C[C@@H](n2ccc3c(N[C@H]4CCc5ccccc54)ncnc32)C[C@@H]1O` [PEVONEDISTAT], for which the Activity entry in the series on HEK293 is recorded as “Non-Toxic”.
With `O=C1CCC(N2C(=O)c3cccc(NCCOCCOCCC(=O)N4CCOC(c5cccc(OC(F)F)c5)C4)c3C2=O)C(=O)N1` (stereo not given), the outcome in series [2] was Active. Also, the Emax in series [1] worked out at 28.3%.
As for `CN(C(=O)CCOCCNc1cccc2c1C(=O)N(C1CCC(=O)NC1=O)C2=O)C(c1ccc(F)cc1)c1cccnc1` (stereo not given), the figures for the Activity entry in series [3] and in series [7] were “Tde” and “Dose-Dependent Effect”, respectively. Besides, the result in series [4] and in series [5] was Active. For the same molecule, the outcome in series [6] and in series [8] was inactive. Besides, the Emax in series [1] turned out to be 31.2%.
With `CN1C(=O)CCC(N2C(=O)c3cccc(NCCOCCC(=O)N(C)C(c4ccc(F)cc4)c4cccnc4)c3C2=O)C1=O` (stereo not given), the result in series [5] was inactive. Besides, in series [1], the Emax result is “inactive”.
Regarding `O=C1CCC(N2C(=O)c3ccc(NCCOCCOCCC(=O)N4CCN(c5nccc(C(F)(F)F)n5)CC4)cc3C2=O)C(=O)N1` (stereo not given), in series [9], the outcome was inactive. Further, the outcome in series [10] and in [2] was Active. This molecule also returned an Emax in series [1] of 31.5%.
